{"source": "patent US20100137440A1", "about": "“LYSINE RIBOSWITCHES, STRUCTURE-BASED COMPOUND DESIGN WITH LYSINE RIBOSWITCHES, AND METHODS AND COMPOSITIONS FOR USE OF AND WITH LYSINE RIBOSWITCHES” (Yale University, priority 2006, published 2010)", "key": {"[1]": {"system": "179-nucleotide receptor domain (179 lysC) of the lysC lysine riboswitch", "experiment": "In-line probing assay, ligand binding to 179 lysC", "design": "species or system B. subtilis", "settings": "for binding to 179 lysC / lysine aptamer (in words): in vitro"}, "[2]": {"system": "lysC lysine riboswitch upstream of lacZ reporter gene", "experiment": "In vivo reporter gene (β-galactosidase) expression assay, wild-type lysC riboswitch", "assay_type": "cell-based, B. subtilis", "settings": "for repression of β-galactosidase reporter gene expression controlled by lysC riboswitch: 3 h growth in presence of compound (5 mM, FIG. 3c); for reporter gene expression at the compound's MIC: at respective MICs"}, "[3]": {"system": "resistant B. subtilis strains (M1, M2)", "experiment": "MIC toward L-4-oxalysine-resistant strains (M1, M2)", "assay_type": "cell-based", "settings": "for effect of M1 and M2 mutations on susceptibility: M1 and M2 strains"}, "B. subtilis 168 (1A1)": {"system": "B. subtilis 168 (1A1)", "experiment": "Antibacterial activity assay (growth curves, MIC) in chemically defined minimal media", "assay_type": "cell-based", "settings": "for complete inhibition of bacterial growth for 24 h: minimal medium; for bacterial growth in minimal medium: 100 μM compound, chemically-defined minimal medium"}, "[4]": {"system": "B. subtilis 168 strain 1A1 (WT)", "experiment": "Sporulation assay, WT strain", "settings": "for % Viable spore formation, WT: spores after heat shock relative to CFU before heat shock"}, "B. subtilis M2 strain": {"system": "B. subtilis M2 strain", "experiment": "Sporulation assay, M2 strain", "settings": "2 mM analog; spores after heat shock relative to CFU before heat shock"}, "[5]": {"system": "179-nucleotide receptor domain (179 lysC) of the lysC lysine riboswitch", "settings": "Sudarsan 2006; cited from earlier work"}, "[6]": {"system": "lysC lysine riboswitch upstream of lacZ reporter gene", "settings": "Sudarsan 2006; cited from earlier work"}, "B. cereus": {"system": "B. cereus", "assay_type": "cell-based, Bacillus cereus", "settings": "minimal medium"}, "[7]": {"system": "lysC riboswitch with the M1 or M2 mutation upstream of β-galactosidase reporter", "experiment": "Reporter gene (β-galactosidase) expression assay, M1 or M2 riboswitch constructs", "assay_type": "cell-based, B. subtilis", "settings": "high compound concentrations (lysine as high as 5 mM)"}, "[8]": {"system": "B. subtilis lysine auxotroph strain 1A40", "assay_type": "cell-based", "settings": "1 mM compound, 3 h, minimal media"}}, "note": "“Also recorded” adds a separate entry of the source.", "data": [{"molecule": "NC/C=C/CC(N)C(=O)O", "note": "(racemic) [Compound 4, DL-trans-2,6-diamino-4-hexenoic acid]", "values": [{"measurement": "binding to 179 lysC / lysine aptamer (in words)", "setting": "[1]", "value": "bind well"}, {"measurement": "repression of β-galactosidase reporter gene expression controlled by lysC riboswitch", "setting": "[2]", "value": "significantly repress"}, {"measurement": "effect of M1 and M2 mutations on susceptibility", "setting": "[3]", "value": "confer resistance"}, {"measurement": "complete inhibition of bacterial growth for 24 h", "setting": "B. subtilis 168 (1A1)", "value": "completely inhibit bacterial growth"}]}, {"molecule": "NCC(=O)CCC(N)C(=O)O", "note": "(racemic) [Compound 8, DL-5-oxolysine]", "values": [{"measurement": "binding to 179 lysC / lysine aptamer (in words)", "setting": "[1]", "value": "poor affinity; also recorded: rejected by the lysine aptamer"}, {"measurement": "repression of β-galactosidase reporter gene expression controlled by lysC riboswitch", "setting": "[2]", "value": "do not repress expression"}, {"measurement": "formation of viable spores (in words)", "setting": "[4]", "value": "do not"}, {"measurement": "% Viable spore formation, WT", "setting": "[4]; 2 mM analog", "value": 47, "unit": "%"}, {"measurement": "% Viable spore formation, M2", "setting": "B. subtilis M2 strain", "value": 9, "unit": "%"}, {"measurement": "bacterial growth in minimal medium", "setting": "B. subtilis 168 (1A1)", "value": "modest level of growth inhibition activity"}]}, {"molecule": "NCC(O)CC[C@H](N)C(=O)O", "note": "(stereo partly shown) [5-hydroxylysine]", "values": [{"measurement": "binding to the lysC riboswitch (previous report)", "setting": "[5]", "value": "fails to bind"}]}, {"molecule": "NCCSC[C@H](N)C(=O)O", "note": "[AEC, L-aminoethylcysteine]", "values": [{"measurement": "binding to the lysC riboswitch (previous report)", "setting": "[5]", "value": "bind well; also recorded: binds to the lysC riboswitch"}, {"measurement": "repression of lysC-regulated reporter gene (previous report)", "setting": "[6]", "value": "represses the expression"}]}, {"molecule": "NCCS(=O)(=O)C[C@H](N)C(=O)O", "note": "[Compound 1, L-3-[(2-aminoethyl)-sulfonyl]-alanine]", "values": [{"measurement": "binding to 179 lysC / lysine aptamer (in words)", "setting": "[1]", "value": "bind well"}, {"measurement": "growth inhibition of B. cereus relative to B. subtilis", "setting": "B. cereus", "value": 13, "unit": "fold"}, {"measurement": "β-galactosidase expression from M1 or M2 constructs", "setting": "[7]", "value": "fully active β-galactosidase is still expressed"}, {"measurement": "repression of β-galactosidase reporter gene expression controlled by lysC riboswitch", "setting": "[2]", "value": "significantly repress"}, {"measurement": "reporter gene expression at the compound's MIC", "setting": "[2]", "value": "completely repress"}, {"measurement": "effect of M1 and M2 mutations on susceptibility", "setting": "[3]", "value": "confer resistance"}, {"measurement": "formation of viable spores (in words)", "setting": "[4]", "value": "inhibit the formation of viable spores"}, {"measurement": "% Viable spore formation, WT", "setting": "[4]; 0.2 mM analog", "value": 7, "unit": "%"}, {"measurement": "% Viable spore formation, WT", "setting": "[4]; 2 mM analog", "value": 0, "unit": "%"}, {"measurement": "% Viable spore formation, M2", "setting": "B. subtilis M2 strain", "value": 17, "unit": "%"}, {"measurement": "complete inhibition of bacterial growth for 24 h", "setting": "B. subtilis 168 (1A1)", "value": "completely inhibit bacterial growth"}]}, {"molecule": "NCCOC[C@H](N)C(=O)O", "note": "[Compound 2, L-4-oxalysine]", "values": [{"measurement": "binding to 179 lysC / lysine aptamer (in words)", "setting": "[1]", "value": "bind well"}, {"measurement": "β-galactosidase expression from M1 or M2 constructs", "setting": "[7]", "value": "fully active β-galactosidase is still expressed"}, {"measurement": "repression of β-galactosidase reporter gene expression controlled by lysC riboswitch", "setting": "[2]", "value": "significantly repress"}, {"measurement": "reporter gene expression at the compound's MIC", "setting": "[2]", "value": "completely repress"}, {"measurement": "increase of MIC in resistant colonies", "setting": "[3]; 24 colonies isolated by serial passage, versus wild type", "value": "at least 9 fold"}, {"measurement": "formation of viable spores (in words)", "setting": "[4]", "value": "inhibit the formation of viable spores"}, {"measurement": "% Viable spore formation, WT", "setting": "[4]; 0.2 mM analog", "value": 71, "unit": "%"}, {"measurement": "% Viable spore formation, WT", "setting": "[4]; 2 mM analog", "value": 6, "unit": "%"}, {"measurement": "% Viable spore formation, M2", "setting": "B. subtilis M2 strain", "value": 65, "unit": "%"}, {"measurement": "complete inhibition of bacterial growth for 24 h", "setting": "B. subtilis 168 (1A1)", "value": "completely inhibit bacterial growth"}]}, {"molecule": "N=C(N)NCCCC[C@H](N)C(=O)O", "note": "[Compound 3, L-homoarginine]", "values": [{"measurement": "binding to 179 lysC / lysine aptamer (in words)", "setting": "[1]", "value": "binds strongly"}, {"measurement": "growth of lysine auxotroph strain 1A40", "setting": "[8]", "value": "supports the growth; also recorded: support growth"}]}, {"molecule": "CC(=O)N[C@@H](CCCCN)C(=O)O", "note": "[Compound 5, L-N^2-acetyllysine]", "values": [{"measurement": "binding to 179 lysC / lysine aptamer (in words)", "setting": "[1]", "value": "does not tolerate modifications at N2"}]}, {"molecule": "CC(=N)NCCCC[C@H](N)C(=O)O", "note": "[Compound 7, L-N^6-1-iminoethyllysine]", "values": [{"measurement": "binding to 179 lysC / lysine aptamer (in words)", "setting": "[1]", "value": "strong binding"}, {"measurement": "repression of β-galactosidase reporter gene expression controlled by lysC riboswitch", "setting": "[2]", "value": "does not repress"}, {"measurement": "bacterial growth in minimal medium", "setting": "B. subtilis 168 (1A1)", "value": "fails to inhibit cell growth"}]}, {"molecule": "Nc1cc(C[C@H](N)C(=O)O)ccc1O", "note": "[Compound 9, L-3-aminotyrosine]", "values": [{"measurement": "binding to 179 lysC / lysine aptamer (in words)", "setting": "[1]", "value": "poor affinities; also recorded: rejected by the lysine aptamer"}, {"measurement": "repression of β-galactosidase reporter gene expression controlled by lysC riboswitch", "setting": "[2]", "value": "do not repress expression"}, {"measurement": "formation of viable spores (in words)", "setting": "[4]", "value": "do not"}, {"measurement": "% Viable spore formation, WT", "setting": "[4]; 2 mM analog", "value": 75, "unit": "%"}, {"measurement": "% Viable spore formation, M2", "setting": "B. subtilis M2 strain", "value": 75, "unit": "%"}, {"measurement": "bacterial growth in minimal medium", "setting": "B. subtilis 168 (1A1)", "value": "modest level of growth inhibition activity"}]}, {"molecule": "Nc1ccccc1C(=O)C[C@H](N)C(=O)O", "note": "[Compound 10, L-2-amino-3-(2-aminobenzoyl)-propionic acid]", "values": [{"measurement": "binding to 179 lysC / lysine aptamer (in words)", "setting": "[1]", "value": "poor affinities"}]}, {"molecule": "CN[C@@H](CCCCN)C(=O)O", "note": "[Compound 11, L-N^2-methyllysine]", "values": [{"measurement": "binding to 179 lysC / lysine aptamer (in words)", "setting": "[1]", "value": "does not tolerate modifications at N2"}]}, {"molecule": "C[N+](C)(C)CCCC[C@H](N)C(=O)O", "note": "[Compound 12, L-N^6-trimethyllysine]", "values": [{"measurement": "binding to 179 lysC / lysine aptamer (in words)", "setting": "[1]", "value": "no binding is observed"}]}, {"molecule": "NCCCC[C@H](N)C(=O)O", "note": "[lysine, L-lysine]", "values": [{"measurement": "Kd", "setting": "[1]", "value": 360, "unit": "nM"}, {"measurement": "repression of β-galactosidase reporter gene expression controlled by lysC riboswitch", "setting": "[2]", "value": "strongly repressed"}, {"measurement": "growth of lysine auxotroph strain 1A40", "setting": "[8]", "value": "support growth"}]}]}
